≈ marks a conversion by molar mass, not a printed value.
Assays:
Trypanosoma cruzi = experiment: Antiprotozoal activity against Trypanosoma cruzi Tulahuen C4 in rat L6 cells; format: functional, organism-based
Plasmodium falciparum = experiment: Antimalarial activity against Plasmodium falciparum K1 in human erythrocytes by [3H]hypoxanthine uptake; format: functional, organism-based
[1] = tested on: Trypanosoma brucei rhodesiense; experiment: Antiprotozoal activity against Trypanosoma brucei rhodesiense STIB900; format: functional, organism-based
Leishmania donovani = experiment: Antiprotozoal activity against Leishmania donovani MHOM-ET-67/L82 in mouse peritoneal macrophages; format: functional, organism-based
L6 = experiment: Cytotoxicity against rat L6 cells; format: cell-based

SMILES | IC50 (Trypanosoma cruzi) | IC50 (Plasmodium falciparum) | IC50 [1] | IC50 (Leishmania donovani) | IC50 (L6)
COc1cccc2oc3c(Cl)c(O)c([C@H]4CCC[C@@H](C)O4)c(O)c3c(=O)c12 [CHAETOXANTHONE C] | 1.5 µg/mL (≈ 3.84 µM) | 4 µg/mL (≈ 10.2 µM) | 42.6 µg/mL (≈ 109 µM) | 3.1 µg/mL (≈ 7.93 µM) | 46.7 µg/mL (≈ 119 µM)
O=C(Cn1ccnc1[N+](=O)[O-])NCc1ccccc1 [BENZNIDAZOLE] | 0.317 µg/mL (≈ 1.22 µM) |  |  |  | 
COc1cccc2oc3cc4c(c(O)c3c(=O)c12)C1CCCC(C)(O4)O1 (stereo unspecified) [CHAETOXANTHONE B] | 7.1 µg/mL (≈ 20 µM) | 0.5 µg/mL (≈ 1.41 µM) | 9.3 µg/mL (≈ 26.2 µM) | 3.4 µg/mL (≈ 9.59 µM) | > 90 µg/mL
COc1cccc2oc3cc4c(c(O)c3c(=O)c12)[C@@H]1C[C@@H](O)C[C@](C)(O4)O1 [CHAETOXANTHONE A] | > 10 µg/mL | 3.5 µg/mL (≈ 9.45 µM) | 4.7 µg/mL (≈ 12.7 µM) | 5.3 µg/mL (≈ 14.3 µM) | 59.1 µg/mL (≈ 160 µM)
